From patent publication US20240116918A1, “SUBSTITUTED TRICYCLIC COMPOUND AS PRMT5 INHIBITOR AND USE THEREOF” (NANJING SANHOME PHARMACEUTICAL CO., LTD., priority 2019, published 2024)

Tests used:
NCI-H358 cells = assay: In vitro cell activity, NCI-H358 cells, CCK-8; type: cell-based; conditions: NCI-H358, 168 h, human non-small cell lung cancer cells, 7 days
Protocol: Test compounds: the compounds of the present invention prepared in the above example. Each compound was formulated into a 10 mM stock solution with DMSO, and finally diluted into 8 concentrations for detection, with the final concentrations being 33333.00 nM, 6666.60 nM, 1333.32 nM, 266.66 nM, 53.33 nM, 10.67 nM, 2.13 nM, and 0.43 nM for experiments in Z-138 cells.
2.1.3 NCI-H358 cell thawing: The cryovial for NCI-H358 cells was taken out from a liquid nitrogen tank and placed in a 37° C. water bath, and shaken gently for thawing as soon as possible. After thawing, the cryovial was taken out, and sterilized with an alcohol cotton ball, after which the cap was unscrewed. The cell fluid was drawn and injected into a centrifuge tube. 1 mL of 1640 medium containing 10% FBS was added, and mixed uniformly. The tube was placed in a centrifuge, and centrifuged at 1000 rpm for 5 min. Afterwards, the supernatant was discarded, and complete medium was added. The mixture was pipetted repeatedly until the cells were completely dispersed and resuspended. The mixture was inoculated in a petri dish at an appropriate concentration, and cultured in a CO2 incubator at 37° C., 5% CO2, and 95% humidified air.
2.2.3 NCI-H358 cell culture and passage: The cells grew to about 80-90%. The medium (1640 medium+10% FBS+1% penicillin-streptomycin+1 mM sodium pyruvate) was transferred to a 15 mL centrifuge tube, and centrifuged at 1000 rpm for 5 min. The supernatant was removed. The cells were resuspended in complete medium, and inoculated in a petri dish at the desired density. The dish was placed in a CO2 incubator at 37° C., 5% CO2, and 95% humid air. The culture medium was changed every 2-3 days or the passage was carried out, depending on the cell growth.
After passage, NCI-H358 cells were resuspended in complete medium at the corresponding density, 1000 cells/well, and inoculated in a 96-well culture plate. The wells at the outer circumference were filled with 200 μL PBS to prevent the culture conditions of the inside plate wells from being too different from each other due to the faster evaporation of medium at the edge. The leftmost column of the 60 inner wells were blank wells, which were not added with cells, but filled with equal volume of PBS. The remaining 54 wells were subjected to cell plating with a multichannel pipette, to each well was added 100 μL. […]
The first column of PBS was used as a blank control well, and 100 μL of CCK-8 was added synchronously thereto. […] The optimal detection time was determined according to the shade of color developed by CCK-8 (the optimal OD value for the DMSO group was about 1.0). […] The microplate reader software was opened, the detection parameters were adjusted, and the absorbance at 450 nm (OD value) was detected. […]

hERG potassium channel = hERG potassium channel (Homo sapiens (Human), UniProt Q12809); assay: Electrophysiological manual patch-clamp detection of effect on hERG potassium channel
hERG potassium channel, sequence (Q12809 whole entry): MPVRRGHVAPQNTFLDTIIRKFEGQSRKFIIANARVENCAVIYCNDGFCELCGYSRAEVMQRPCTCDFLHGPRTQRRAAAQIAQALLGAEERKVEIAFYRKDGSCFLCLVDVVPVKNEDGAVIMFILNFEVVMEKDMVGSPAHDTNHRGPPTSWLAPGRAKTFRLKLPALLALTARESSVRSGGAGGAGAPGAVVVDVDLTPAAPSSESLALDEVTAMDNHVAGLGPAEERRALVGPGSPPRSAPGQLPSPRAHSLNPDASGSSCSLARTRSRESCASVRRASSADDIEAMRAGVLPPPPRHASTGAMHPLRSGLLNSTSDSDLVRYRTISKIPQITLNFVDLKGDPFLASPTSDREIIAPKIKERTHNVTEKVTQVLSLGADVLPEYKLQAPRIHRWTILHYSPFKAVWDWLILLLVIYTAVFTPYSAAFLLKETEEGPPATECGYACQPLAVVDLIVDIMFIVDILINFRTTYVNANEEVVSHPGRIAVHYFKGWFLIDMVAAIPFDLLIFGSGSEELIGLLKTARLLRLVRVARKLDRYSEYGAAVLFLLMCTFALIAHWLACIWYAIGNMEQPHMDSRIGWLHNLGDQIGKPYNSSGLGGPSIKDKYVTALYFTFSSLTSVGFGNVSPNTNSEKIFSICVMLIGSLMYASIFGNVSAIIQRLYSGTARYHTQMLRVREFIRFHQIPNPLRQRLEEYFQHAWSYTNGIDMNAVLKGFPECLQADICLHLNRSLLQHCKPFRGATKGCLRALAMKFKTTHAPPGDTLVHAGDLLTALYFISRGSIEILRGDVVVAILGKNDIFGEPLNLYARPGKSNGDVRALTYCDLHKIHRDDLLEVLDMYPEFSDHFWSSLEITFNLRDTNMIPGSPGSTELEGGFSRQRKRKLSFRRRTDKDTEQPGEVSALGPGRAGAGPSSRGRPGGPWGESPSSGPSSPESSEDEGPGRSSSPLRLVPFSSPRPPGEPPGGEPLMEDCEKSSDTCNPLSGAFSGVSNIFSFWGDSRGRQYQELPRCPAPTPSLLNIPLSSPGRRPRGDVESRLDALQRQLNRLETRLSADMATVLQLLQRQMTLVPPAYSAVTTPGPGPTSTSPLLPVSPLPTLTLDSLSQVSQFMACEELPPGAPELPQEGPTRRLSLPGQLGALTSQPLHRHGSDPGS
Protocol: Preparation of test solvents: preparation of extracellular fluid (mM): 137 NaCl, 4 KCl, 1.8 CaCl2, 1 MgCl2, 10 glucose and 10 HEPES (pH 7.4); preparation of intracellular fluid (mM): 130 KCl, 1 MgCl2, 5 EGTA, 5 MgATP and 10 HEPES (pH 7.2); preparation of negative control: extracellular fluid+0.3% DMSO; positive control: quinidine.
Compound treatment: The compound was weighed and dissolved in DMSO to prepare a 10 mM stock solution, which was diluted with DMSO to form secondary stock solutions with concentrations of 3.3, 1.1, 0.37 and 0.12 mM. 90 μL each of the stock solution and the secondary stock solutions was diluted into 30 mL of extracellular fluid for electrophysiological detection. The final concentrations of the compound were 30, 10, 3.3, 1.1 and 0.37 μM, and the final concentration of DMSO was 3:1000.
Stably transfected cell culture: The cell line was originated from HEK-293 cells overexpressing hERG potassium ion channel. […] The cells were cultured in an incubator at 37° C. and 5% CO2. When the cell density reaches 80% of the petri dish, the cells were first pre-washed with phosphate buffered saline (PBS), then digested with trypsin/EDTA for 2-3 min. Cell culture medium was added to stop the digestion. The cells were gently blown down and transferred to a centrifuge tube, and centrifuged at 1000 rpm for 3 min. The supernatant was discarded, cell culture medium was added, and the cells were mixed uniformly by gentle tapping. After that, the mixture was transferred to a petri dish for subculture, or the cells were dripped on a round glass slide and placed on a petri dish for the cells to adhere for experiments.
Experiments on electrophysiological manual patch-clamp system: The stably transfected cells were inoculated on a glass slide with a cell density lower than 50%, and cultured overnight. The experimental cells were transferred to a bath of about 1 mL embedded in an inverted microscope platform, and the extracellular fluid was perfused at a perfusion rate of 2.7 mL/min. After 5 minutes of stabilization, the experiment was started. Membrane currents were recorded using HEKA EPC-10 patch clamp amplifier and [sequence] acquisition system. All the experiments were performed at room temperature (22-24° C.). Electrodes were drawn straight using P-97 microelectrode drawing instrument (BF150-110-10) in the experiments. The inner diameter of the electrode was 1-1.5 mm, and the pipette resistance after filling with the inner liquid was 2-4 MΩ. The electrophysiological stimulation scheme of hERG potassium channel included: first setting the membrane voltage at −80 mV, applying a stimulation to the cells at +20 mV voltage for 2 s to activate the hERG potassium channel, and then repolarizing to −50 mV for 5 s to generate an outward tail current. The stimulation frequency was once every 15 s. The current value was the peak value of the tail current. The channel currents were recorded in the whole-cell recording mode. Firstly, the extracellular fluid was perfused (about 2 mL per minute) while recording was continued. When the current was stabilized (the current decay (Run-Down) was less than 5% within 5 minutes), the peak value of the tail current was the control current value. Then, the extracellular fluid containing the drug to be tested was perfused while the recording was continued until the inhibitory effect of the drug on the hERG current reached a steady state. At this time, the peak value of the tail current was the current value after drug addition. […]

ex vivo heart = assay: Ex vivo heart experiments, QT interval

SMILES	IC50 (NCI-H358 cells) [nM]	IC50 (hERG potassium channel) [nM]	effect on the QT interval (ex vivo heart)	inhibitory effect on the hERG potassium channel (in words) (hERG potassium channel; conclusion from Table 4)
CC(=O)N1CCC(Nc2cc(C(=O)NC[C@H](O)CN3CCc4ccccc4C3)ncn2)CC1 [Compound A, (S)-6-((1-Acetylpiperidin-4-yl)amino)-N-(3-(3,4-dihydroisoquinolin-2(1H)-yl)-2-hydroxypropyl)pyrimidine-4-carboxamide]	73.2			
CC(=O)N1CCC(Nc2ccc3c(c2)C(=O)N(C[C@H](O)CN2CCc4ccccc4C2)CC32CC2)CC1 [Compound B, (R)-7′-((1-Acetylpiperidin-4-yl)amino)-2′-(3-(3,4-dihydroisoquinolin-2(1H)-yl)-2-hydroxypropyl)-2′,3′-dihydro-1′H-spiro[cyclopropane-1,4′-isoquinolin]-1′-one, reference compound]	15.3	2710	significant prolongation of the QT interval	
CC(=O)N1CCC(Nc2cc3c(cn2)C2(CC2)CN(C[C@H](O)CN2CCc4ccccc4C2)C3=O)CC1 [Example 1, (R)-7′-((1-acetylpiperidin-4-yl)amino)-2′-(3-(3,4-dihydroisoquinolin-2(1H)-yl)-2-hydroxypropyl)-2′,3′-dihydro-1′H-spiro[cyclopropane-1,4′-[2,6]naphthyridin]-1′-one]	8.9	5240	no effect on the QT interval	weak inhibitory effect
CC(=O)N1CC2(CC(Nc3cc4c(cn3)C3(CC3)CN(C[C@H](O)CN3CCc5ccccc5C3)C4=O)C2)C1 [Example 2, (R)-7′-((2-acetyl-2-azaspiro[3.3]hept-6-yl)amino)-2′-(3-(3,4-dihydroisoquinolin-2(1H)-yl)-2-hydroxypropyl)-2′,3′-dihydro-1′H-spiro[cyclopropane-1,4′-[2,6]naphthyridin]-1-one]	5.02	15100	no effect on the QT interval	
